Laboratory results: patent US20210045385A1, “PYRIDAZINONE-SUBSTITUTED KETOXIMES AS HERBICIDES” (FMC Corporation, priority 2018, published 2021)

Legend:
Assay type in all cases: in vivo
[1] = system: ducksalad (Heteranhera limosa); assay: Test B flooded paddy test, visual plant response rating; conditions: 250 g ai/ha, Flood, applied to paddy water, 2-leaf stage, evaluated after 13 to 15 days
Summary of the method: (§1)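 Plants were raised to the 2-leaf stage, then pots were flooded to 3 cm above the soil and test compound was applied directly into the paddy water. Water depth was held for the whole test; after 13 to 15 days in a greenhouse, responses were scored visually against controls.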

[2] = system: sedge, umbrella (small-flower umbrella sedge, Cyperus difformis); assay: as above; conditions: 250 g ai/ha, Flood, applied to paddy water, 2-leaf stage, evaluated after 13 to 15 days
Summary of the method: as §1

rice (Oryza sativa) = assay: as above; conditions: 250 g ai/ha, Flood, applied to paddy water, 2-leaf stage, evaluated after 13 to 15 days
Summary of the method: as §1

[3] = system: barnyardgrass (Echinochloa crus-galli); assay: as above; conditions: 250 g ai/ha, Flood, applied to paddy water, 2-leaf stage, evaluated after 13 to 15 days
Summary of the method: as §1

kochia (Kochia scoparia) [4] = assay: Test A preemergence, visual plant response rating; conditions: for Kochia plant response rating: 125 g ai/ha, preemergence, 0 to 100 scale, 0 no effect, 100 complete control; for Kochia plant response rating (0 to 100 scale): 500 g ai/ha Preemergence, approx. 10 days
Summary of the method: (§2)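 Greenhouse evaluation, approx. 10 days post-spray. Soil: loam + sand. Postemergence stage: 1–2 leaves, height 2–10 cm. Vehicle: non-phytotoxic solvent blend with surfactant. Score: visual injury on a 0 (no effect) to 100 (complete control) scale.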

[5] = system: ragweed (common ragweed, Ambrosia elatior); assay: Test A preemergence, visual plant response rating; conditions: for Ragweed plant response rating: 125 g ai/ha, preemergence, 0 to 100 scale, 0 no effect, 100 complete control; for Ragweed plant response rating (0 to 100 scale): 500 g ai/ha Preemergence, approx. 10 days
Summary of the method: as §2

[6] = system: foxtail, giant (giant foxtail, Setaria faberii); assay: Test A preemergence, visual plant response rating; conditions: for Foxtail, Giant plant response rating: 125 g ai/ha, preemergence, 0 to 100 scale, 0 no effect, 100 complete control; for Foxtail, Giant plant response rating (0 to 100 scale): 500 g ai/ha Preemergence, approx. 10 days
Summary of the method: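 Preemergence: seeds in loam/sand blend given directed soil spray of compound in non-phytotoxic solvent with surfactant. Postemergence: plants 2–10 cm, one- to two-leaf stage, sprayed with same formulation. Visual injury rated vs untreated controls after ~10 days in greenhouse, 0 (no effect) to 100 (complete control).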

[7] = system: Italian ryegrass (Lolium multiflorum); assay: Test A preemergence, visual plant response rating; conditions: for Ryegrass, Italian plant response rating: 125 g ai/ha, preemergence, 0 to 100 scale, 0 no effect, 100 complete control; for Ryegrass, Italian plant response rating (0 to 100 scale): 500 g ai/ha Preemergence, approx. 10 days
Summary of the method: as §2

[8] = system: barnyardgrass (Echinochloa crus-galli); assay: Test A preemergence, visual plant response rating; conditions: for Barnyardgrass plant response rating: 125 g ai/ha, preemergence, 0 to 100 scale, 0 no effect, 100 complete control; for Barnyardgrass plant response rating (0 to 100 scale): 500 g ai/ha Preemergence, approx. 10 days
Summary of the method: as §2

[9] = system: pigweed (Amaranthus retroflexus); assay: Test A preemergence, visual plant response rating; conditions: for Pigweed plant response rating: 125 g ai/ha, preemergence, 0 to 100 scale, 0 no effect, 100 complete control; for Pigweed plant response rating (0 to 100 scale): 500 g ai/ha Preemergence, approx. 10 days
Summary of the method: as §2

kochia (Kochia scoparia) [10] = assay: Test A postemergence, visual plant response rating; conditions: for Kochia plant response rating (0 to 100 scale): 500 g ai/ha, postemergence, 0 is no effect, 100 is complete control; for Kochia plant response rating: Postemergence, 125 g ai/ha, 0 to 100 scale (0 no effect, 100 complete control)
Summary of the method: as §2

[11] = system: wheat (Triticum aestivum); assay: Test A postemergence, visual plant response rating; conditions: for Wheat plant response rating (0 to 100 scale): 500 g ai/ha, postemergence, 0 is no effect, 100 is complete control; for Wheat plant response rating: Postemergence, 125 g ai/ha, 0 to 100 scale (0 no effect, 100 complete control)
Summary of the method: as §2

[12] = system: ragweed (common ragweed, Ambrosia elatior); assay: Test A postemergence, visual plant response rating; conditions: for Ragweed plant response rating (0 to 100 scale): 500 g ai/ha, postemergence, 0 is no effect, 100 is complete control; for Ragweed plant response rating: Postemergence, 125 g ai/ha, 0 to 100 scale (0 no effect, 100 complete control)
Summary of the method: as §2

[13] = system: galium (catchweed bedstraw, Galium aparine); assay: Test A postemergence, visual plant response rating; conditions: for Galium plant response rating (0 to 100 scale): 500 g ai/ha, postemergence, 0 is no effect, 100 is complete control; for Galium plant response rating: Postemergence, 125 g ai/ha, 0 to 100 scale (0 no effect, 100 complete control)
Summary of the method: as §2

[14] = system: blackgrass (Alopecurus myosuroides); assay: Test A postemergence, visual plant response rating; conditions: for Blackgrass plant response rating (0 to 100 scale): 500 g ai/ha, postemergence, 0 is no effect, 100 is complete control; for Blackgrass plant response rating: Postemergence, 125 g ai/ha, 0 to 100 scale (0 no effect, 100 complete control)
Summary of the method: as §2

[15] = system: foxtail, giant (giant foxtail, Setaria faberii); assay: Test A postemergence, visual plant response rating; conditions: for Foxtail, Giant plant response rating (0 to 100 scale): 500 g ai/ha, postemergence, 0 is no effect, 100 is complete control; for Foxtail, Giant plant response rating: Postemergence, 125 g ai/ha, 0 to 100 scale (0 no effect, 100 complete control)
Summary of the method: as §2

[16] = system: Italian ryegrass (Lolium multiflorum); assay: Test A postemergence, visual plant response rating; conditions: for Ryegrass, Italian plant response rating (0 to 100 scale): 500 g ai/ha, postemergence, 0 is no effect, 100 is complete control; for Ryegrass, Italian plant response rating: Postemergence, 125 g ai/ha, 0 to 100 scale (0 no effect, 100 complete control)
Summary of the method: as §2

[17] = system: barnyardgrass (Echinochloa crus-galli); assay: Test A postemergence, visual plant response rating; conditions: for Barnyardgrass plant response rating (0 to 100 scale): 500 g ai/ha, postemergence, 0 is no effect, 100 is complete control; for Barnyardgrass plant response rating: Postemergence, 125 g ai/ha, 0 to 100 scale (0 no effect, 100 complete control)
Summary of the method: as §2

corn (Zea mays) = assay: Test A postemergence, visual plant response rating; conditions: for Corn plant response rating (0 to 100 scale): 500 g ai/ha, postemergence, 0 is no effect, 100 is complete control; for Corn plant response rating: Postemergence, 125 g ai/ha, 0 to 100 scale (0 no effect, 100 complete control)
Summary of the method: as §2

[18] = system: pigweed (Amaranthus retroflexus); assay: Test A postemergence, visual plant response rating; conditions: for Pigweed plant response rating (0 to 100 scale): 500 g ai/ha, postemergence, 0 is no effect, 100 is complete control; for Pigweed plant response rating: Postemergence, 125 g ai/ha, 0 to 100 scale (0 no effect, 100 complete control)
Summary of the method: as §2

Compound	Plant response rating, Ducksalad (0 to 100 scale, 0 is no effect, 100 is complete control) [1]	Plant response rating, Sedge, Umbrella (0 to 100 scale, 0 is no effect, 100 is complete control) [2]	Plant response rating, Rice (0 to 100 scale, 0 is no effect, 100 is complete control) (rice (Oryza sativa))	Plant response rating, Barnyardgrass (0 to 100 scale, 0 is no effect, 100 is complete control) [3]	Kochia plant response rating (kochia (Kochia scoparia) [4])	Kochia plant response rating (0 to 100 scale) (kochia (Kochia scoparia) [4])	Ragweed plant response rating [5]	Ragweed plant response rating (0 to 100 scale) [5]	Foxtail, Giant plant response rating [6]	Foxtail, Giant plant response rating (0 to 100 scale) [6]	Ryegrass, Italian plant response rating [7]	Ryegrass, Italian plant response rating (0 to 100 scale) [7]	Barnyardgrass plant response rating [8]	Barnyardgrass plant response rating (0 to 100 scale) [8]	Pigweed plant response rating [9]	Pigweed plant response rating (0 to 100 scale) [9]	Kochia plant response rating (0 to 100 scale) (kochia (Kochia scoparia) [10])	Kochia plant response rating (kochia (Kochia scoparia) [10])	Wheat plant response rating (0 to 100 scale) [11]	Wheat plant response rating [11]	other results
CON=C(c1c(O)c(C)nn(C)c1=O)c1cccc2ccc(Cl)cc12 [Compound 111]	0	0	0	0	20	100	70	100	50	90	30	70	60	70	100	100	60	40	60	0	Ragweed plant response rating (0 to 100 scale) [12]: 80; Ragweed plant response rating [12]: 80; Galium plant response rating (0 to 100 scale) [13]: 90; Galium plant response rating [13]: 80; Blackgrass plant response rating (0 to 100 scale) [14]: 100; Blackgrass plant response rating [14]: 80; Foxtail, Giant plant response rating (0 to 100 scale) [15]: 70; Foxtail, Giant plant response rating [15]: 60; Ryegrass, Italian plant response rating (0 to 100 scale) [16]: 90; Ryegrass, Italian plant response rating [16]: 70; Barnyardgrass plant response rating (0 to 100 scale) [17]: 80; Barnyardgrass plant response rating [17]: 50; Corn plant response rating (0 to 100 scale) (corn (Zea mays)): 30; Corn plant response rating (corn (Zea mays)): 20; Pigweed plant response rating (0 to 100 scale) [18]: 90; Pigweed plant response rating [18]: 60
C#CCO/N=C(/c1c(O)c(C)nn(C)c1=O)c1cc(Br)cc2ccccc12 [Compound 112, 4-[(E)-(3-bromo-1-naphthalenyl)[(2-propyn-1-yloxy)imino]methyl]-5-hydroxy-2,6-dimethyl-3(2H)-pyridazinone]	60	60	0	55	50	80	90	90	100	100	100	100	100	100	100	100	90	70	70	50	Ragweed plant response rating (0 to 100 scale) [12]: 100; Ragweed plant response rating [12]: 100; Galium plant response rating (0 to 100 scale) [13]: 100; Galium plant response rating [13]: 100; Blackgrass plant response rating (0 to 100 scale) [14]: 100; Blackgrass plant response rating [14]: 100; Foxtail, Giant plant response rating (0 to 100 scale) [15]: 90; Foxtail, Giant plant response rating [15]: 90; Ryegrass, Italian plant response rating (0 to 100 scale) [16]: 100; Ryegrass, Italian plant response rating [16]: 90; Barnyardgrass plant response rating (0 to 100 scale) [17]: 90; Barnyardgrass plant response rating [17]: 80; Corn plant response rating (0 to 100 scale) (corn (Zea mays)): 90; Corn plant response rating (corn (Zea mays)): 20; Pigweed plant response rating (0 to 100 scale) [18]: 100; Pigweed plant response rating [18]: 90
CCO/N=C(/c1c(O)c(C)nn(C)c1=O)c1cc(Br)cc2ccccc12 [Compound 113, 4-[(E)-(3-bromo-1-naphthalenyl)(ethoxyimino)methyl]-5-hydroxy-2,6-dimethyl-3(2H)-pyridazinone]	75	50	60	85	30	90	90	90	100	100	80	100	90	100	80	100	90	60	60	50	Ragweed plant response rating (0 to 100 scale) [12]: 100; Ragweed plant response rating [12]: 90; Galium plant response rating (0 to 100 scale) [13]: 100; Galium plant response rating [13]: 100; Blackgrass plant response rating (0 to 100 scale) [14]: 100; Blackgrass plant response rating [14]: 90; Foxtail, Giant plant response rating (0 to 100 scale) [15]: 90; Foxtail, Giant plant response rating [15]: 90; Ryegrass, Italian plant response rating (0 to 100 scale) [16]: 90; Ryegrass, Italian plant response rating [16]: 80; Barnyardgrass plant response rating (0 to 100 scale) [17]: 90; Barnyardgrass plant response rating [17]: 90; Corn plant response rating (0 to 100 scale) (corn (Zea mays)): 80; Corn plant response rating (corn (Zea mays)): 40; Pigweed plant response rating (0 to 100 scale) [18]: 100; Pigweed plant response rating [18]: 100
C=CCON=C(c1c(O)c(C)nn(C)c1=O)c1cc(Br)cc2ccccc12 [Compound 114]	85	85	35	70	10	20	80	90	100	100	70	100	90	100	10	80	40	30	50	0	Ragweed plant response rating (0 to 100 scale) [12]: 100; Ragweed plant response rating [12]: 90; Galium plant response rating (0 to 100 scale) [13]: 100; Galium plant response rating [13]: 100; Blackgrass plant response rating (0 to 100 scale) [14]: 90; Blackgrass plant response rating [14]: 80; Foxtail, Giant plant response rating (0 to 100 scale) [15]: 90; Foxtail, Giant plant response rating [15]: 90; Ryegrass, Italian plant response rating (0 to 100 scale) [16]: 90; Ryegrass, Italian plant response rating [16]: 80; Barnyardgrass plant response rating (0 to 100 scale) [17]: 90; Barnyardgrass plant response rating [17]: 80; Corn plant response rating (0 to 100 scale) (corn (Zea mays)): 80; Corn plant response rating (corn (Zea mays)): 20; Pigweed plant response rating (0 to 100 scale) [18]: 90; Pigweed plant response rating [18]: 70
